Data as given in patent US4720495A, “Benzo[ij]quinolizine-2-carboxylic acids useful for treating bacterial infection” (priority 1985, dated 1988).
In brackets after ≈: the same amount, converted by molar mass.

Tests used:
[1] = system: Gram-negative bacteria (such as Pseudomonas aeruginosa, Serratia marcescens and the like); experiment: confirmatory experiment on the antibacterial activity of Compound α; type: cell-based
Description: (§1) On the other hand, Compound α has only been reported to be useful as an intermediate material for the preparation of 9-fluoro-6, 7-dihydro-7-hydroxy-5-methyl-1-oxo-1H, 5H-benzo[ij]quinolizine-2-carboxylic acid (Japanese Patent Laid-Open No. 127,099/'76), and no detailed report on its antibacterial activity has been published.

[2] = system: Gram-positive bacteria; experiment: as above; type: cell-based
Description: as §1

[3] = system: Salmonella enteritidis G14; experiment: minimal inhibitory concentration, in vitro antibacterial activity; type: cell-based; conditions: Salmonella enterica, 37° C., 20 hours
Description: (§2) The in vitro antibacterial activities of typical examples of the present compounds [I] were evaluated in terms of the minimal inhibitory concentration defined as the lowest concentration of the compound preventing the bacterial growth. The Gram-positive bacteria used as test microorganisms included Bacillus subtilis, Staphylococcus aureus and Streptococcus faecalis, and the Gram-negative bacteria used as test microorganisms included Escherichia coli, Enterobacter cloacae, Klebsiella pneumoniae, Proteus vulgaris, Pseudomonas aeruginosa, Serratia marcescens and Salmonella enteritidis. The minimal inhibitory concentration (cultured at 37° C. for 20 hours) was determined according to the standard method prescribed by the Japan Society of Chemotherapy (CHEMOTHERAPY, Vol. 29, No. 1, p. 76, 1981). The following compounds were used as typical examples of the present compounds [I]. At the end of the chemical name of each compound, its tentative designation is given in Parentheses.
(§3) For purposes of comparison, the in vitro antibacterial activities of ofloxacin, OPC-7241 and compound α were evaluated according to the same method as described above and the test results thus obtained are also shown in Table 1.

[4] = system: Escherichia coli CI-304; experiment: as above; type: cell-based; conditions: CI304, 37° C., 20 hours
Description: as §2, §3

[5] = system: Pseudomonas aeruginosa NCTC 10490; experiment: as above; type: cell-based; conditions: NCTC10490, 37° C., 20 hours
Description: as §2, §3

[6] = system: Enterobacter cloacae 963; experiment: as above; type: cell-based; conditions: 37° C., 20 hours
Description: as §2, §3

[7] = system: Serratia marcescens IAM 1184; experiment: as above; type: cell-based; conditions: IAM1184, 37° C., 20 hours
Description: as §2, §3

[8] = system: Staphylococcus aureus FDA 209P JC-1; experiment: as above; type: cell-based; conditions: FDA209P, 37° C., 20 hours
Description: as §2, §3

[9] = system: Bacillus subtilis ATCC 6633; experiment: as above; type: cell-based; conditions: ATCC6633, 37° C., 20 hours
Description: as §2, §3

[10] = system: Klebsiella pneumoniae PCI 602; experiment: as above; type: cell-based; conditions: PCI602, 37° C., 20 hours
Description: as §2, §3

[11] = system: Proteus vulgaris ATCC 13315; experiment: as above; type: cell-based; conditions: ATCC13315, 37° C., 20 hours
Description: as §2, §3

[12] = system: Streptococcus faecalis AHU 1085; experiment: as above; type: cell-based; conditions: Enterococcus faecalis, AHU1085, 37° C., 20 hours
Description: as §2, §3

[13] = system: Escherichia coli NIHJ JC-2; experiment: as above; type: cell-based; conditions: NIHJJC2, 37° C., 20 hours
Description: as §2, §3

[14] = system: Gram-negative and Gram-positive bacteria; conditions: in vitro tests with Gram-negative and Gram-positive bacteria; cited from earlier work
[15] = 50 mg/kg orally, fasted mice, after 30 minutes; cited from earlier work
[16] = system: Escherichia coli CI-304; experiment: therapeutic effect on experimentally induced infection in mice; type: in vivo, Escherichia coli CI-304 in male ddY strain mice; conditions: CI304, po, 168 h, orally, one hour after inoculation, survival after 7 days
Description: Using male ddY strain mice infected with Escherichia coli CI-304 (in groups of five; weighing 20±1 g), the therapeutic effect of some typical examples of the present compounds [I] was tested. The therapeutic effect was evaluated by administering each test compound orally to infected mice and calculating ED50 from the number of mice surviving after the lapse of 7 days. Infected mice were prepared by suspending cells of the aforesaid Escherichia coli strain in a 5% mucin solution and injecting this suspension into the peritoneal cavity of mice. The dose of the bacterial cells was ten times the minimal lethal dose which had previously been determined by a preliminary test. One hour after inoculation of the bacterial cells, each test compound was administered orally to the mice.
For purposes of comparison, ofloxacin and OPC-7241 were tested in the same manner as described above and the results thus obtained are also shown in Table 3.

[17] = enteral absorbability, serum concentration after oral administration to mice; type: in vivo; conditions: mouse, 50 mg/kg orally, fasted male ICR mice
Description: Using male ICR mice fasted overnight (weighing 20±1 g), the enteral absorbability of some typical examples of the present compounds [I] was tested. This test was carried out by administering 50 mg/kg of each test compound orally to mice and determining its serum concentration 30 minutes, 1 hour, 2 hours and 4 hours after administration. Five mice were used for each test point. At each test point, whole blood was collected from the mice by cardiac puncture and used to prepare serum samples. Concentrations of the test compounds in serum samples were determined by the paper disc method using Escherichia coli CI-304 as the test microorganism.
For purposes of comparison, the enteral absorbability of ofloxacin and OPC-7241 was tested in the same manner as described above and the results thus obtained are also shown in Table 2.

[18] = 1 mg/mouse (equivalent to 50 mg/kg) orally, cited from earlier work

SMILES | MIC [3] [µg/mL] | MIC [4] [µg/mL] | MIC [5] [µg/mL] | MIC [6] [µg/mL] | MIC [7] [µg/mL] | MIC [8] [µg/mL] | MIC [9] [µg/mL] | MIC [10] [µg/mL] | MIC [11] [µg/mL] | MIC [12] [µg/mL] | MIC [13] [µg/mL] | further results
CC1CC(=O)c2cc(F)cc3c(=O)c(C(=O)O)cn1c23 (stereo not drawn) [Compound α, 9-fluoro-6,7-dihydro-1,7-dioxo-5-methyl-1H, 5H-benzo[ij]quinolizine-2-carboxylic acid, reference compound] | 50 (≈ 182 µM) | 12.5 (≈ 45.4 µM) | > 100 | 12.5 (≈ 45.4 µM) | > 100 | > 100 | 12.5 (≈ 45.4 µM) | 12.5 (≈ 45.4 µM) | 25 (≈ 90.8 µM) | > 100 | 25 (≈ 90.8 µM) | efficacy against Gram-negative bacteria [1]: utterly ineffective; efficacy against Gram-positive bacteria [2]: low
CCn1cc(C(=O)O)c(=O)c2cc(F)c(N3CCNCC3)cc21 [norfloxacin, 1-ethyl-6-fluoro-1,4-dihydro-7-(1-piperazinyl)-4-oxoquinoline-3-carboxylic acid] |  |  |  |  |  |  |  |  |  |  |  | antibacterial activity [14]: excellent antibacterial activity; degree of absorption into the serum, average peak value [15]: 1 ± 0.6 µg/mL
CC1COc2c(N3CCN(C)CC3)c(F)cc3c(=O)c(C(=O)O)cn1c23 (stereo not drawn) [Ofloxacin, 9-fluoro-3-methyl-10-(4-methyl-1-piperazinyl)-7-oxo-2,3-dihydro-7H-pyrido[1,2,3-de][1,4]benzoxazine-6-carboxylic acid, reference compound] | 0.39 (≈ 1.08 µM) | 0.1 (≈ 0.277 µM) | 0.78 (≈ 2.16 µM) | 0.2 (≈ 0.553 µM) | 0.78 (≈ 2.16 µM) | 0.2 (≈ 0.553 µM) | 0.1 (≈ 0.277 µM) | 0.1 (≈ 0.277 µM) | 0.1 (≈ 0.277 µM) | 0.78 (≈ 2.16 µM) | 0.2 (≈ 0.553 µM) | ED50 [16]: 0.9 mg/kg; concentration at 0.5 h ([17]; 30 min.): 9000 ng/mL; concentration at 1 h ([17]; 1 hr.): 6200 ng/mL; concentration at 2 h ([17]; 2 hr.): 2600 ng/mL; concentration at 4 h ([17]; 4 hr.): 1200 ng/mL; residual concentration in the serum ([18]; 2 hours after administration): 1.5 µg/mL; serum concentration ([18]; fasted mice, after 30 minutes): 10000 ng/mL
